Measured values from US7495023B2, “Thio semicarbazone and semicarbozone inhibitors of cysteine proteases and methods of their use” (The Regents of the University of California, priority 2002, dated 2009).
“Also recorded” adds a separate entry of the source. Read-outs that look alike come from different tables or passages of the source. One block for each compound: values may come before it.

Tests used:
falcipain-2 = target: T1, falcipain-2 (Plasmodium falciparum, UniProt Q8I6U4); assay: Inhibition of falcipain-2; format: biochemical
T1 sequence (Q8I6U4 244-484): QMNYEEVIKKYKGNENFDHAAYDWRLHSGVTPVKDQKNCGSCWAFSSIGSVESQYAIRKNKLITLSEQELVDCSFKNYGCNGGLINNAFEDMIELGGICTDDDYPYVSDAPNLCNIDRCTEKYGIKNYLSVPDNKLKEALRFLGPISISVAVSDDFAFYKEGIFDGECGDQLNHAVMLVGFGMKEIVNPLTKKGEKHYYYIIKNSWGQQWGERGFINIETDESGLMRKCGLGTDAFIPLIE
From the text: (§1) Thio semicarbazones have been tested against falcipain 2, which is the cysteine protease of parasites related to malaria. […] The WHO (World Health Organization) helped to screen compound 1i against a couple of parasite strains. It has activity against T. cruzi and P. falciparum parasites.

[1] = target: T. cruzi cathepsin L-like protease (cruzain) (Trypanosoma cruzi, UniProt P25779); assay: biochemical
T. cruzi cathepsin L-like protease (cruzain), sequence (P25779 123-467): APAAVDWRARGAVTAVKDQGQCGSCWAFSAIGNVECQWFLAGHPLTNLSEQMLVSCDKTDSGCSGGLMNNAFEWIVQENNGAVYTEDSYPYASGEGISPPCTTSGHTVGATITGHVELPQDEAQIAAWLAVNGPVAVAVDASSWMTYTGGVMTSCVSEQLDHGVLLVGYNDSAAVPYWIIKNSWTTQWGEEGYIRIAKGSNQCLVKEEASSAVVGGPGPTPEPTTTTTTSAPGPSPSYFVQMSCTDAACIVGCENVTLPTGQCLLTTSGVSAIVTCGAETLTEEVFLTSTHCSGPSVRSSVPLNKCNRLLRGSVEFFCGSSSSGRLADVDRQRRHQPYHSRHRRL
Protocol: (§2) IC50 Determinations. Inhibitors were screened for effectiveness against the T. cruzi cathepsin L-like protease (cruzain) using purified recombinant protein. Cruzain (1 nM) was incubated with 20-50000 nM inhibitor in 100 mM sodium acetate-5 mM DTT buffer (pH 5.50, buffer A) for 5 min at room temperature. […] The increase in fluorescence (excitation at 355 nm and emission at 460 nm) was followed with an automated microtiter plate spectrofluorimeter (Molecular Devices, spectraMAX Gemini). Inhibitor stock solutions were prepared at 20 mM in DMSO, and serial dilutions were made in DMSO (0.7% DMSO in assay). Controls were performed using enzyme alone and enzyme with DMSO. IC50 values were determined graphically using inhibitor concentrations in the linear portion of a plot of inhibition versus log [I] (seven concentrations were tested, and at least two were in the linear range).

T. cruzi (Y strain) = assay: Anti-trypanosomal cell culture assay, T. cruzi-infected J774 macrophages; format: cell-based; settings: for effect on T. cruzi in cell culture (trypanocidal / trypanostatic / inactive): inhibitor 10 μM, cultures up to 30 days
Protocol: Drug Screening in Cell Culture. Mammalian cells are routinely cultured in RPMI-1640 medium supplemented with 5-10% heat-inactivated fetal calf serum (FCS) at 37° C. in 5% CO2. The Y strain of T. cruzi is maintained by serial passage in bovine embryo skeletal muscle (BESM) cells. Infectious trypomastigotes are collected from culture supernatants. For drug assays, J774 macrophages were irradiated (5000 rad) and plated onto six-well tissue culture plates 24 h prior to infection with ˜106 trypomastigotes/well. […] Inhibitor stocks (10 mM) in DMSO were stored at 4° C. J774 monolayers treated with a blank containing DMSO are used as a negative control, and monolayers treated with a known trypanocidal inhibitor, 10 μM N-methyl piperazine-Phe-homoPhe-vinyl sulfone phenyl (N-Pip-F-hF-VSPh) acted as a positive control (Engel et al., J. Exp. Med., 188:725-734 (1998)). RPMI medium with or without inhibitor is replaced every 48 h. Cultures are maintained for up to 30 days and monitored daily by contrast phase microscopy. […] The comparative effectiveness of each inhibitor was estimated from plots of the duration of the intracellular cycle of T. cruzi (days) in treated vs untreated control wells.

T. cruzi [2] = settings: mouse model; cited from earlier work
T. cruzi [3] = settings: cited from earlier work
T. cruzi parasites = assay: WHO screen against T. cruzi parasites; format: cell-based
From the text: as §1

[4] = Solubility observations (cell culture medium, methanol); format: physicochemical; settings: cell culture medium
J774 macrophages = assay: Toxicity to mammalian host cells in the cell culture assay; format: cell-based
Protocol: Drug Screening in Cell Culture. Mammalian cells are routinely cultured in RPMI-1640 medium supplemented with 5-10% heat-inactivated fetal calf serum (FCS) at 37° C. in 5% CO2. The Y strain of T. cruzi is maintained by serial passage in bovine embryo skeletal muscle (BESM) cells. Infectious trypomastigotes are collected from culture supernatants. For drug assays, J774 macrophages were irradiated (5000 rad) and plated onto six-well tissue culture plates 24 h prior to infection with ˜106 trypomastigotes/well. Parasites are removed 2 h postinfection, and the medium is supplemented with the appropriate cysteine protease inhibitor (10 μM). Inhibitor stocks (10 mM) in DMSO were stored at 4° C. J774 monolayers treated with a blank containing DMSO are used as a negative control, and monolayers treated with a known trypanocidal inhibitor, 10 μM N-methyl piperazine-Phe-homoPhe-vinyl sulfone phenyl (N-Pip-F-hF-VSPh) acted as a positive control (Engel et al., J. Exp. Med., 188:725-734 (1998)). RPMI medium with or without inhibitor is replaced every 48 h. Cultures are maintained for up to 30 days and monitored daily by contrast phase microscopy. […] The comparative effectiveness of each inhibitor was estimated from plots of the duration of the intracellular cycle of T. cruzi (days) in treated vs untreated control wells.
The toxicity of compounds to mammalian host cells was also evaluated in the assay.

cruzain = cruzain (Trypanosoma cruzi, UniProt P25779); format: biochemical; settings: incubation 90 s to 24 h
cruzain, sequence (P25779 123-467): as above
Protocol: The time dependence of inhibition was determined by incubating cruzain with inhibitors, DMSO, or enzyme alone at room temperature for time points between 90 s and 24 h. The enzymatic activity was determined as above.
A known irreversible inhibitor, K002 (morpholino urea-Phe-homoPhe-vinyl sulfone benzene; Axys Pharmaceuticals Inc., South San Francisco, Calif.), and a known reversible covalent inhibitor, leupeptin, were used as controls for the thio semicarbazones.

parasite P. falciparum = assay: WHO screen against P. falciparum parasites; format: cell-based
From the text: as §1

human cathepsin B = human cathepsin B (Homo sapiens, UniProt P07858); assay: Inhibition of cathepsin B protease activity; format: biochemical
Protocol: as §2, with “protein.” for “protein. Cruzain (1 nM) was incubated with 20-50000 nM inhibitor in 100 mM sodium acetate-5 mM DTT buffer (pH 5.50, buffer A) for 5 min at room temperature.”
Enzyme assays to test the ability of thio semicarbazone compounds to inhibit the cysteine protease activity of rhodesain and cathepsin B were carried out as described for assays to test inhibition of protease activity by cruzain. In these assays, inhibition of cruzain is included as a positive control.

IC50 (falcipain-2): 150 nM | cruzain inhibitory activity, in words [1]: better IC50 values than 1i | IC50 ([1]; 5 min incubation, room temperature, pH 5.50, read-out: IC50 against cruzain): 20 nM | increase in activity over 1i (cruzain) ([1]; compared to 1i): ~5 fold
Compound: CCC(=NNC(N)=S)c1ccc(Cl)c(Cl)c1 [Compound 2i, 3′,4′-Dichloropropiophenone Thio Semicarbazone]

Compound: CN1CCN(C(=O)NC(Cc2ccccc2)C(=O)NC(C=CS(=O)(=O)c2ccccc2)CCc2ccccc2)CC1 (stereo not drawn) [N-Pip-F-hF-VSPh, N-methyl piperazine-Phe-homoPhe-vinyl sulfone phenyl, reference compound]
effect on T. cruzi in cell culture (trypanocidal / trypanostatic / inactive) (T. cruzi (Y strain)): unable to survive | outcome of treatment of T. cruzi-infected mice (T. cruzi [2]): resulted in a cure

Compound: benzyloxy-carbonyl-L-phenylalanyl L-alanine fluoromethyl ketone [Z-Phe-Ala-FMK]
effect on replication and differentiation of T. cruzi in cultures (T. cruzi [3]): blocks replication and differentiation of the parasite

time dependence of cruzain inhibition (cruzain): time-dependent | IC50 (parasite P. falciparum; Plasmodium falciparum): 16000 to 32000 nM
Compound: CCC(=NNC(N)=S)c1cccc(Br)c1 [Compound 1i, 3′-Bromopropiophenone Thio Semicarbazone]
activity against T. cruzi parasites (T. cruzi parasites): has activity | solubility in the cell culture medium, in words [4]: without toxicity to host cells or solubility problems | effect on T. cruzi in cell culture (trypanocidal / trypanostatic / inactive) (T. cruzi (Y strain)): significant trypanocidal activity; also recorded: cured of trypanosomal infection; also recorded: trypanocidal effect | time postinfection that cells stayed healthy and parasite-free (T. cruzi (Y strain); treated for three weeks, then compound removed, experiment terminated): ≥ 6.5 weeks | toxicity to host cells, in words (J774 macrophages): without toxicity to host cells | activity against P. falciparum parasites (parasite P. falciparum; WHO screen): has activity

Compound: O=C(N[C@H](/C=C/S(=O)(=O)c1ccccc1)CCc1ccccc1)[C@H](Cc1ccccc1)NC(=O)N1CCOCC1 [Compound K002, morpholino urea-Phe-homoPhe-vinyl sulfone benzene]
IC50 (human cathepsin B; read-out: cathepsin B IC50 (μM) 5 min preincubation, 5 min preincubation): 0.5 µM | IC50 (human cathepsin B; read-out: cathepsin B IC50 (μM) 30 min preincubation, 30 min preincubation): < 0.1 µM | time dependence of cruzain inhibition (cruzain): rapidly time-dependent
